Data from PubChem BioAssay AID1919014 (Molecular Pharmacology Branch, DTP, NCI, 2023).
Where “and” joins values, the source holds several entries; their conditions need not be identical. Identical values can stand only once.

Test system: NCI-H1341 complex spheroids, percent test/control
Test: Anticancer human tumor NCI-H1341 cell line growth inhibition [AhR];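 note: spheroids exposed to agents for seven days before readout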
Conditions: for viability, T/C: stronger effect = lower value
Description: Multicellular complex tumor spheroid response to aryl hydrocarbon receptor antagonists in combination with a variety of drugs and investigational agents in selected tumor cell lines
The current study was undertaken to assess response to aryl hydrocarbon receptor antagonists in combination with standard-of-care drugs and investigational agents in solid tumor complex spheroid models. Complex spheroids include a stromal component modeled by human endothelial cells (HUVEC) and fibroblasts modeled by human mesenchymal stem cells (MSCs). The concentration ranges selected for each drug and investigational agent were based upon clinically achievable concentrations if the clinical Cmax of the agent was known.
Compounds. The drugs and investigational agents: BAY 2416964 (NSC825713), GNF351 (NSC835774), CH-223191 (NSC835775), CPI-455 (NSC825282), aza-TdCyd (NSC777586), decitabine (NSC127716), belinostat (NSC758774), entinostat (NSC756642), pevonedistat (NSC761192), tazemetostat (NSC777109), talazoparib (NSC765396), olaparib (NSC753686), selinexor (NSC780203), nedisertib (M3814, NSC802822), bortezomib (NSC756655), venetoclax (NSC766270), doxorubicin (NSC123127), elimusertib (BAY189344, NSC800525), ceralasertib (AZD6738, NSC777638), TAK-243 (NSC785004), alisertib (NSC759677), etoposide (NSC141540), topotecan (NSC609699), eribulin (NSC707389), gemcitabine (NSC613327), carboplatin (NSC241240), cisplatin (NSC119875), and SN-38 (NSC673596) were obtained from the National Cancer Institute (NCI) Developmental Therapeutics Program Chemical Repository (32). The FDA-approved anticancer drug set is available from the Developmental Therapeutics Program at https://dtp.cancer.gov/organization/dscb/obtaining/available plates.htm. […] The stock solutions were prepared in dimethyl sulfoxide (DMSO, Sigma-Aldrich, St. Louis, MO, cat. D2650), except for the platinum compounds which were prepared in saline (Quality Biological, Gaithersburg, MD, cat. 114-055-101), at 800-fold the tested concentration and stored at -70 degrees C prior to their use. All drugs and investigational agents were tested over a range starting from a high concentration at or near the clinical Cmax and decreasing in half-log increments. If the clinical Cmax for an agent had not been determined, the highest concentration tested was 10 microM (Table 1).
Cell Culture. All cells were maintained in an incubator at 37 degrees C and 5% CO2 with 95% humidity. The PDC lines were cultured according to standard operating procedures established by the NCI PDMR (https://pdmr.cancer.gov). Briefly, all PDCs were thawed and cultured in Matrigel-coated flasks prepared with a working solution of 1X Ham's F-12 nutrient mix, without supplementation (Invitrogen, Waltham, MA, cat. 11765054), 100 U/mL penicillin-streptomycin (Invitrogen, cat. 15140122), and 2.5% Matrigel (Corning Inc., Corning, NY, cat. 354248) for the first three passages. All PDCs were cultured in complete DMEM/F-12 media containing advanced DMEM/F-12 (Invitrogen, cat. 12634028), 4.9% defined fetal bovine serum, heat inactivated (HyClone Laboratories Inc., Logan, UT, cat. SH30070.03HI), 389 ng/mL hydrocortisone (Sigma-Aldrich, cat. H4001), 9.7 ng/mL human EGF recombinant protein (Invitrogen, cat. PHG0313), 23.4 microg/mL adenine (Sigma-Aldrich, cat. A2786), 97.3 U/mL penicillin-streptomycin (Invitrogen, cat. 15140122), 1.9 mM L-glutamine (Invitrogen, cat. 25030081), and 9.7 microM Y-27632 dihydrochloride (Tocris Bioscience, Bristol, United Kingdom, cat. 1254). The PDCs were cultured in complete DMEM/F12 media without 10 microM Y-27632 dihydrochloride for at least two passages prior to the screen. The established cell lines NCI-H1341 and […] were cultured in DMEM/F-12, HEPES (Invitrogen, cat. 11330032), 5% defined fetal bovine serum (HyClone Laboratories Inc., cat. SH30070.03), ITS premix universal culture supplement [insulin (5 microg/mL), transferrin (5 microg/mL), and selenious acid (5 ng/mL)] […]

[1] = curve of first compound, second compound 0.1 µM
[2] = curve of first compound, second compound 0.316 µM
[3] = curve of first compound, second compound 1 µM
[4] = curve of first compound, second compound 3.16 µM
[5] = curve of first compound, second compound 10 µM
[6] = second compound 0.1 µM, first compound 0.0316 µM
[7] = second compound 0.1 µM, first compound 0.1 µM
[8] = second compound 0.1 µM, first compound 0.316 µM
[9] = second compound 0.1 µM, first compound 1 µM
[10] = second compound 0.1 µM, first compound 3.16 µM
[11] = second compound 0.1 µM, first compound 10 µM
[12] = second compound 0.316 µM, first compound 0.0316 µM
[13] = second compound 0.316 µM, first compound 0.1 µM
[14] = second compound 0.316 µM, first compound 0.316 µM
[15] = second compound 0.316 µM, first compound 1 µM
[16] = second compound 0.316 µM, first compound 3.16 µM
[17] = second compound 0.316 µM, first compound 10 µM
[18] = second compound 1 µM, first compound 0.0316 µM
[19] = second compound 1 µM, first compound 0.1 µM
[20] = second compound 1 µM, first compound 0.316 µM
[21] = second compound 1 µM, first compound 1 µM
[22] = second compound 1 µM, first compound 3.16 µM
[23] = second compound 1 µM, first compound 10 µM
[24] = second compound 3.16 µM, first compound 0.0316 µM
[25] = second compound 3.16 µM, first compound 0.1 µM
[26] = second compound 3.16 µM, first compound 0.316 µM
[27] = second compound 3.16 µM, first compound 1 µM
[28] = second compound 3.16 µM, first compound 3.16 µM
[29] = second compound 3.16 µM, first compound 10 µM
[30] = second compound 10 µM, first compound 0.0316 µM
[31] = second compound 10 µM, first compound 0.1 µM
[32] = second compound 10 µM, first compound 0.316 µM
[33] = second compound 10 µM, first compound 1 µM
[34] = second compound 10 µM, first compound 3.16 µM
[35] = second compound 10 µM, first compound 10 µM

Compound | IC50 [1] [µM] | IC50 [2] [µM] | IC50 [3] [µM] | IC50 [4] [µM] | IC50 [5] [µM] | viability, T/C [6] [%] | viability, T/C [7] [%] | viability, T/C [8] [%] | viability, T/C [9] [%] | viability, T/C [10] [%] | viability, T/C [11] [%] | viability, T/C [12] [%] | viability, T/C [13] [%] | viability, T/C [14] [%] | viability, T/C [15] [%] | viability, T/C [16] [%] | viability, T/C [17] [%] | viability, T/C [18] [%] | viability, T/C [19] [%] | viability, T/C [20] [%] | other results
CC1COCCN1c1cc(C2(S(C)(=N)=O)CC2)nc(-c2ccnc3[nH]ccc23)n1 (centres undefined) + Cc1cncc(-c2nc(NCCc3c[nH]c4ccccc34)c3ncn(C(C)C)c3n2)c1 | 3.65 | 1.97 | 3.45 | 1.82 | < 0.0316 | 81.4 | 85.2 | 71.1 | 71.5 | 54.6 | 21.9 | 87.9 | 84.1 | 75.1 | 62.1 | 41.6 | 20.6 | 89.9 | 83.6 | 70.3 | viability, T/C [21]: 75.1%; viability, T/C [22]: 51.7%; viability, T/C [23]: 22.8%; viability, T/C [24]: 54.7%; viability, T/C [25]: 66.3%; viability, T/C [26]: 65.6%; viability, T/C [27]: 62.9%; viability, T/C [28]: 38.5%; viability, T/C [29]: 25.6%; viability, T/C [30]: 40.5%; viability, T/C [31]: 30.7%; viability, T/C [32]: 39.2%; viability, T/C [33]: 29.1%; viability, T/C [34]: 26.3%; viability, T/C [35]: 13.9%
NS(=O)(=O)OCC1CC(n2ccc3c(NC4CCc5ccccc54)ncnc32)CC1O (centres undefined) |  |  |  |  |  |  |  |  |  |  |  |  |  |  |  |  |  |  |  |  | viability, T/C (compound 0.0316 µM): 52.1% and 44.4% and 32.1%; viability, T/C (compound 0.1 µM): 41.7% and 37.3% and 22.6%; viability, T/C (compound 0.316 µM): 27.1% and 18% and 11.2%; viability, T/C (compound 1 µM): 12.3% and 12.1% and 6.23%; viability, T/C (compound 3.16 µM): 11.9% and 7.68% and 3.37%; viability, T/C (compound 10 µM): 11.4% and 4.21% and 2.28%; IC50 (curve of compound): 0.0392 µM and < 0.0316 µM
Cn1ncnc1C1c2n[nH]c(=O)c3cc(F)cc(c23)NC1c1ccc(F)cc1 (centres undefined) |  |  |  |  |  |  |  |  |  |  |  |  |  |  |  |  |  |  |  |  | viability, T/C (compound 0.000316 µM): 125% and 98% and 95.9%; viability, T/C (compound 0.001 µM): 88.8% and 101% and 99%; viability, T/C (compound 0.00316 µM): 97.2% and 99.4% and 99.8%; viability, T/C (compound 0.01 µM): 96.9% and 109% and 95.9%; viability, T/C (compound 0.0316 µM): 85.5% and 74% and 100%; viability, T/C (compound 0.1 µM): 89.4% and 76.9% and 71.7%; IC50 (curve of compound): > 0.1 µM
COc1cc(Nc2ncc3c(n2)-c2ccc(Cl)cc2C(c2c(F)cccc2OC)=NC3)ccc1C(=O)O + Cc1ccccc1N=Nc1ccc(NC(=O)c2ccnn2C)c(C)c1 | < 0.0316 | < 0.0316 | 0.249 | < 0.0316 | < 0.0316 | 48.9 | 45.1 | 42 | 31.9 | 29.9 | 25.6 | 50.6 | 46.3 | 48.5 | 39.2 | 30 | 25.2 | 56.2 | 55.3 | 48.3 | viability, T/C [21]: 40%; viability, T/C [22]: 31.4%; viability, T/C [23]: 26%; viability, T/C [24]: 47.7%; viability, T/C [25]: 48.1%; viability, T/C [26]: 39.5%; viability, T/C [27]: 40.9%; viability, T/C [28]: 25.3%; viability, T/C [29]: 26.8%; viability, T/C [30]: 44%; viability, T/C [31]: 43.9%; viability, T/C [32]: 37.3%; viability, T/C [33]: 38.2%; viability, T/C [34]: 27.3%; viability, T/C [35]: 28.6%
CC1(C)CCC(CN2CCN(c3ccc(C(=O)NS(=O)(=O)c4ccc(NCC5CCOCC5)c([N+](=O)[O-])c4)c(Oc4cnc5[nH]ccc5c4)c3)CC2)=C(c2ccc(Cl)cc2)C1 + Cc1ccccc1N=Nc1ccc(NC(=O)c2ccnn2C)c(C)c1 | 1.97 | 2.26 | 1.99 | 0.539 | < 0.0316 | 96.5 | 86 | 96 | 60.5 | 41.3 | 12.6 | 100 | 82.3 | 94.2 | 78.3 | 38.1 | 14.3 | 80.3 | 70.2 | 84.2 | viability, T/C [21]: 72.3%; viability, T/C [22]: 34.6%; viability, T/C [23]: 14.1%; viability, T/C [24]: 80%; viability, T/C [25]: 54.4%; viability, T/C [26]: 61%; viability, T/C [27]: 46.7%; viability, T/C [28]: 30.1%; viability, T/C [29]: 16.5%; viability, T/C [30]: 44.2%; viability, T/C [31]: 39.9%; viability, T/C [32]: 44.5%; viability, T/C [33]: 35.4%; viability, T/C [34]: 22%; viability, T/C [35]: 12.8%
